Assay results taken from PubChem BioAssay (NCI).
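Briefly, cells in 96-well plates were exposed to five compound concentrations for 48 h, and endpoints were estimated by linear interpolation. TGI is the concentration that stops growth completely.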

Experiments:
Experiment in all cases: inhibition of tumour cell growth, NCI panel, 48 h
DMS 273 small cell lung = tested on: DMS 273 small cell lung
NCI-H23 lung = tested on: NCI-H23 lung
SF-295 CNS = tested on: SF-295 CNS
A549 NSCLC = tested on: A549 NSCLC
HCT-15 colon = tested on: HCT-15 colon
CAKI-1 renal = tested on: CAKI-1 renal
KM12 colon = tested on: KM12 colon
MOLT-4 leukemia = tested on: MOLT-4 leukemia
NCI-H522 lung = tested on: NCI-H522 lung
HOP-62 NSCLC = tested on: HOP-62 NSCLC
XF 498 CNS = tested on: XF 498 CNS
SR leukemia = tested on: SR leukemia
ACHN renal = tested on: ACHN renal
HL-60(TB) leukemia = tested on: HL-60(TB) leukemia
HT29 colon = tested on: HT29 colon
SN12C renal = tested on: SN12C renal
786-0 renal = tested on: 786-0 renal
DLD-1 colon = tested on: DLD-1 colon
RPMI-8226 leukemia = tested on: RPMI-8226 leukemia
SK-OV-3 ovarian = tested on: SK-OV-3 ovarian
UACC-62 melanoma = tested on: UACC-62 melanoma
RXF-631 renal = tested on: RXF-631 renal
SNB-19 CNS = tested on: SNB-19 CNS
UACC-257 melanoma = tested on: UACC-257 melanoma
HCT-116 colon = tested on: HCT-116 colon
K-562 leukemia = tested on: K-562 leukemia
NCI-H460 lung = tested on: NCI-H460 lung
SK-MEL-5 melanoma = tested on: SK-MEL-5 melanoma
IGROV1 ovarian = tested on: IGROV1 ovarian
MALME-3M melanoma = tested on: MALME-3M melanoma
KM20L2 colon = tested on: KM20L2 colon
TK-10 renal = tested on: TK-10 renal
A498 renal = tested on: A498 renal
U251 CNS = tested on: U251 CNS
LXFL 529 NSCLC = tested on: LXFL 529 NSCLC
SK-MEL-2 melanoma = tested on: SK-MEL-2 melanoma
HOP-18 NSCLC = tested on: HOP-18 NSCLC
SNB-75 CNS = tested on: SNB-75 CNS
SW-620 colon = tested on: SW-620 colon
M19-MEL melanoma = tested on: M19-MEL melanoma
EKVX NSCLC = tested on: EKVX NSCLC
CCRF-CEM leukemia = tested on: CCRF-CEM leukemia
COLO 205 colon = tested on: COLO 205 colon
UO-31 renal = tested on: UO-31 renal
OVCAR-8 ovarian = tested on: OVCAR-8 ovarian
OVCAR-5 ovarian = tested on: OVCAR-5 ovarian
HCC-2998 colon = tested on: HCC-2998 colon
M14 melanoma = tested on: M14 melanoma
SF-539 CNS = tested on: SF-539 CNS
NCI-H226 lung = tested on: NCI-H226 lung
OVCAR-4 ovarian = tested on: OVCAR-4 ovarian
OVCAR-3 ovarian = tested on: OVCAR-3 ovarian
SNB-78 CNS = tested on: SNB-78 CNS
SK-MEL-28 melanoma = tested on: SK-MEL-28 melanoma
RXF 393 renal = tested on: RXF 393 renal
SF-268 CNS = tested on: SF-268 CNS
LOX IMVI melanoma = tested on: LOX IMVI melanoma
DMS 114 small cell lung = tested on: DMS 114 small cell lung
HOP-92 NSCLC = tested on: HOP-92 NSCLC

`O=C1c2ccccc2C(=O)N1C/C=N/NS(=O)(=O)c1ccc2ccccc2c1` was tested, and the TGI (DMS 273 small cell lung) was greater than 100 µM, the TGI (NCI-H23 lung) was greater than 100 µM and the TGI (SF-295 CNS) was greater than 100 µM. The TGI (A549 NSCLC) was greater than 100 µM, the TGI (HCT-15 colon) was greater than 100 µM and the TGI (CAKI-1 renal) was greater than 100 µM. The TGI (KM12 colon) was greater than 100 µM, the TGI (MOLT-4 leukemia) was greater than 100 µM and the TGI (NCI-H522 lung) was greater than 100 µM. The TGI (HOP-62 NSCLC) was greater than 100 µM, the TGI (XF 498 CNS) was greater than 100 µM and the TGI (SR leukemia) was greater than 100 µM. The TGI (ACHN renal) was greater than 100 µM, the TGI (HL-60(TB) leukemia) was greater than 100 µM and the TGI (HT29 colon) was greater than 100 µM. The TGI (SN12C renal) was greater than 100 µM, the TGI (786-0 renal) was greater than 100 µM and the TGI (DLD-1 colon) was greater than 100 µM. For the same molecule, the TGI (RPMI-8226 leukemia) was greater than 100 µM, the TGI (SK-OV-3 ovarian) was greater than 100 µM and the TGI (UACC-62 melanoma) was greater than 100 µM. The TGI (RXF-631 renal) was greater than 100 µM, the TGI (SNB-19 CNS) was greater than 100 µM and the TGI (UACC-257 melanoma) was greater than 100 µM. It also gave a TGI (HCT-116 colon) greater than 100 µM, a TGI (K-562 leukemia) greater than 100 µM and a TGI (NCI-H460 lung) greater than 100 µM. It also gave a TGI (SK-MEL-5 melanoma) greater than 100 µM, a TGI (IGROV1 ovarian) greater than 100 µM and a TGI (MALME-3M melanoma) greater than 100 µM. For the same molecule, the TGI (KM20L2 colon) was greater than 100 µM, the TGI (TK-10 renal) was greater than 100 µM and the TGI (A498 renal) was greater than 100 µM. It also gave a TGI (U251 CNS) greater than 100 µM, a TGI (LXFL 529 NSCLC) greater than 100 µM and a TGI (SK-MEL-2 melanoma) greater than 100 µM. For the same molecule, the TGI (HOP-18 NSCLC) was greater than 100 µM, the TGI (SNB-75 CNS) was greater than 100 µM and the TGI (SW-620 colon) was greater than 100 µM. For the same molecule, the TGI (M19-MEL melanoma) was greater than 100 µM, the TGI (EKVX NSCLC) was greater than 100 µM and the TGI (CCRF-CEM leukemia) was greater than 100 µM. The TGI (COLO 205 colon) was greater than 100 µM, the TGI (UO-31 renal) was greater than 100 µM and the TGI (OVCAR-8 ovarian) was greater than 100 µM. It also gave a TGI (OVCAR-5 ovarian) greater than 100 µM, a TGI (HCC-2998 colon) greater than 100 µM and a TGI (M14 melanoma) greater than 100 µM. The TGI (SF-539 CNS) was greater than 100 µM, the TGI (NCI-H226 lung) was greater than 100 µM and the TGI (OVCAR-4 ovarian) was greater than 100 µM. It also gave a TGI (OVCAR-3 ovarian) greater than 100 µM and a TGI (SNB-78 CNS) greater than 100 µM.

In the case of `CCN(C1=CC(=O)NC2CCCCN12)c1ccccc1` (configuration not stated), the TGI (DMS 273 small cell lung) was greater than 100 µM, the TGI (NCI-H23 lung) was greater than 100 µM and the TGI (SF-295 CNS) was greater than 100 µM. For the same molecule, the TGI (A549 NSCLC) was greater than 100 µM, the TGI (HCT-15 colon) was greater than 100 µM and the TGI (CAKI-1 renal) was greater than 100 µM. The TGI (KM12 colon) was greater than 100 µM, the TGI (MOLT-4 leukemia) was greater than 100 µM and the TGI (HOP-62 NSCLC) was greater than 100 µM. For the same molecule, the TGI (XF 498 CNS) was greater than 100 µM, the TGI (ACHN renal) was greater than 100 µM and the TGI (HT29 colon) was greater than 100 µM. For the same molecule, the TGI (SN12C renal) was greater than 100 µM, the TGI (786-0 renal) was greater than 100 µM and the TGI (DLD-1 colon) was greater than 100 µM. It also gave a TGI (RPMI-8226 leukemia) greater than 100 µM, a TGI (SK-OV-3 ovarian) greater than 100 µM and a TGI (UACC-62 melanoma) greater than 100 µM. It also gave a TGI (RXF-631 renal) greater than 100 µM, a TGI (SNB-19 CNS) greater than 100 µM and a TGI (UACC-257 melanoma) greater than 100 µM. The TGI (HCT-116 colon) was greater than 100 µM, the TGI (K-562 leukemia) was greater than 100 µM and the TGI (NCI-H460 lung) was greater than 100 µM. The TGI (SK-MEL-28 melanoma) was greater than 100 µM, the TGI (SK-MEL-5 melanoma) was greater than 100 µM and the TGI (RXF 393 renal) was greater than 100 µM. For the same molecule, the TGI (IGROV1 ovarian) was greater than 100 µM, the TGI (MALME-3M melanoma) was greater than 100 µM and the TGI (SF-268 CNS) was greater than 100 µM. It also gave a TGI (KM20L2 colon) greater than 100 µM, a TGI (TK-10 renal) greater than 100 µM and a TGI (A498 renal) greater than 100 µM. The TGI (U251 CNS) was greater than 100 µM, the TGI (LXFL 529 NSCLC) was greater than 100 µM and the TGI (SK-MEL-2 melanoma) was greater than 100 µM. The TGI (HOP-18 NSCLC) was greater than 100 µM, the TGI (SNB-75 CNS) was greater than 100 µM and the TGI (SW-620 colon) was greater than 100 µM. For the same molecule, the TGI (M19-MEL melanoma) was greater than 100 µM, the TGI (EKVX NSCLC) was greater than 100 µM and the TGI (CCRF-CEM leukemia) was greater than 100 µM. For the same molecule, the TGI (LOX IMVI melanoma) was greater than 100 µM, the TGI (COLO 205 colon) was greater than 100 µM and the TGI (DMS 114 small cell lung) was greater than 100 µM. It also gave a TGI (OVCAR-8 ovarian) greater than 100 µM, a TGI (OVCAR-5 ovarian) greater than 100 µM and a TGI (HCC-2998 colon) greater than 100 µM. The TGI (M14 melanoma) was greater than 100 µM, the TGI (SF-539 CNS) was greater than 100 µM and the TGI (OVCAR-4 ovarian) was greater than 100 µM. The TGI (OVCAR-3 ovarian) was greater than 100 µM and the TGI (SNB-78 CNS) was greater than 100 µM.

In the case of `Cc1ccc(S(=O)(=O)O/N=C2\CCC\C2=C/c2ccccc2)cc1`, the TGI (DMS 273 small cell lung) was greater than 100 µM, the TGI (NCI-H23 lung) was 38.9 µM and the TGI (SF-295 CNS) was 50.1 µM. It also gave a TGI (A549 NSCLC) greater than 100 µM, a TGI (HCT-15 colon) of 73.8 µM and a TGI (CAKI-1 renal) of 36.8 µM. The TGI (KM12 colon) was 32.6 µM, the TGI (MOLT-4 leukemia) was 29.2 µM and the TGI (NCI-H522 lung) was 37.8 µM. The TGI (HOP-62 NSCLC) was greater than 100 µM, the TGI (XF 498 CNS) was 33.3 µM and the TGI (SR leukemia) was 43.4 µM. For the same molecule, the TGI (ACHN renal) was 23.3 µM, the TGI (HL-60(TB) leukemia) was greater than 100 µM and the TGI (HT29 colon) was 60.1 µM. For the same molecule, the TGI (SN12C renal) was greater than 100 µM, the TGI (786-0 renal) was 67.9 µM and the TGI (DLD-1 colon) was 46.3 µM. It also gave a TGI (HOP-92 NSCLC) of 34.5 µM, a TGI (RPMI-8226 leukemia) of 37.3 µM and a TGI (SK-OV-3 ovarian) greater than 100 µM. The TGI (UACC-62 melanoma) was 27.2 µM, the TGI (RXF-631 renal) was 36.5 µM and the TGI (SNB-19 CNS) was greater than 100 µM. It also gave a TGI (UACC-257 melanoma) of 31.4 µM, a TGI (HCT-116 colon) of 25.3 µM and a TGI (K-562 leukemia) greater than 100 µM. The TGI (NCI-H460 lung) was 47.9 µM, the TGI (SK-MEL-28 melanoma) was 24.1 µM and the TGI (SK-MEL-5 melanoma) was 28.4 µM. The TGI (RXF 393 renal) was 44 µM, the TGI (IGROV1 ovarian) was greater than 100 µM and the TGI (SF-268 CNS) was 27.7 µM. For the same molecule, the TGI (KM20L2 colon) was 49 µM, the TGI (TK-10 renal) was 30.4 µM and the TGI (U251 CNS) was 88.6 µM. The TGI (LXFL 529 NSCLC) was 83.9 µM, the TGI (SK-MEL-2 melanoma) was 30.8 µM and the TGI (HOP-18 NSCLC) was 34.6 µM. The TGI (SNB-75 CNS) was 44.1 µM, the TGI (SW-620 colon) was greater than 100 µM and the TGI (M19-MEL melanoma) was 44.3 µM. It also gave a TGI (EKVX NSCLC) of 35.3 µM, a TGI (CCRF-CEM leukemia) greater than 100 µM and a TGI (LOX IMVI melanoma) greater than 100 µM. The TGI (COLO 205 colon) was 29.8 µM, the TGI (UO-31 renal) was 42.5 µM and the TGI (OVCAR-8 ovarian) was greater than 100 µM. For the same molecule, the TGI (OVCAR-5 ovarian) was 42.6 µM, the TGI (HCC-2998 colon) was 31.6 µM and the TGI (M14 melanoma) was 47.4 µM. For the same molecule, the TGI (SF-539 CNS) was 43.5 µM, the TGI (NCI-H226 lung) was 37.7 µM and the TGI (OVCAR-4 ovarian) was 58.6 µM. For the same molecule, the TGI (OVCAR-3 ovarian) was 32.8 µM and the TGI (SNB-78 CNS) was 13 µM.
